The values that follow come from patent publication US10988482B2, “IRAK4 inhibitor and use thereof” (BEIJING HANMI PHARMACEUTICAL CO., LTD., priority 2015, dated 2021).

IRAK4 kinase, sequence (Q9NWZ3 whole entry): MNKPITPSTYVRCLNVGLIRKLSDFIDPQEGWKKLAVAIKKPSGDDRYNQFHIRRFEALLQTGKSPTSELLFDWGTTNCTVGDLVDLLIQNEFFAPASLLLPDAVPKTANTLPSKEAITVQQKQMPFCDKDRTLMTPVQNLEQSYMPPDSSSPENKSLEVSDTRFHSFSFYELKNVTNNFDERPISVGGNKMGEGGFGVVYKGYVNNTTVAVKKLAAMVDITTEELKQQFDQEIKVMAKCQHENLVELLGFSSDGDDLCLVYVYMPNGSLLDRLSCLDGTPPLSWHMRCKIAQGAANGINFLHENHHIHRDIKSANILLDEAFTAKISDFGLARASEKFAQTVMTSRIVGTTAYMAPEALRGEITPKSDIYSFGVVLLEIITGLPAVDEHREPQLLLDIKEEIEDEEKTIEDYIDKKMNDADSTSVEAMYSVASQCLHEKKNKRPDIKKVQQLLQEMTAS

The target of this test is IRAK4 kinase (Homo sapiens (Human), UniProt Q9NWZ3). Kind of test: IRAK4 kinase activity inhibition assay (ADP-Glo). As to conditions: 10 μM ATP, MBP substrate, 60 min at 25° C. The test is classed as biochemical. How it is done:
IRAK4 kinase (purchased from Life Technologies, Cat. No.: PR5612U) was diluted to 2 folds of the final concentration (the final concentration is 0.76 ng/μL) with reaction buffer (40 mM Tris-HCl, pH 7.5; 20 mM MgCl2; 0.1 mg/mL BSA; 1 mM DTT), and added to a 384-well plate at 5 μL/well. The test drugs were 10-fold serial diluted from 10 μM to set six concentration points and added to the test wells of the 384-well plate at 2.5 μL/well. After incubation for 10 min at 25° C., 10 μM of ATP and […] of an enzyme reaction substrate, myelin basic protein MBP (purchased from SignalChem, Cat. No.: M42-51N) were added at 2.5 µL/well, and reacted at 25° C. for 60 minutes. After the reaction was completed, the kinase activity assay was performed using the ADP-Glo™ kinase assay kit (purchased from Promega, Cat. No.: V9102) according to the manufacture's instruction, i.e., 10 μL of ADP-Glo reaction reagent was first added and reacted at 25° C. for 40 minutes, 10 μL of the solution to be tested was taken and mixed with 10 μL of ADP-Glo detection reagent, and reacted at 25° C. for 30 minutes. The kinase activity was then detected, and the IC50 values of the test drugs were calculated.
The compound `Cc1cc(Nc2nc(N[C@H]3CC[C@H](O)CC3)c3sccc3n2)sn1` [Compound 1, trans-4-((2-((3-methylisothiazol-5-yl)amino)thieno[3,2-d]pyrimidin-4-yl)amino)cyclohexanol] returned an IC50 of no more than 100 nM.

In turn, `Cc1cc(Nc2nc(NC3CC(O)C3)c3sccc3n2)sn1` (centres unmarked) [Compound 2] showed an IC50 of no more than 100 nM.

Turning to `Cc1cc(Nc2nc(N[C@H]3C[C@@](C)(O)C3)c3sccc3n2)sn1` [Compound 3], the IC50 is no more than 100 nM.

Take `Cc1cc(Nc2nc(N[C@H]3CC[C@@H](O)C3)c3sccc3n2)sn1` [Compound 4]: the IC50 is no more than 100 nM.

Turning to `Cc1cc(Nc2nc(N[C@H]3CC[C@H](O)C3)c3sccc3n2)sn1` [Compound 5], the IC50 lay in the range of 100 to 1000 nM.

The compound `Cc1cc(Nc2nc(NC3CCC(C)(O)C3)c3sccc3n2)sn1` (centres unmarked) [Compound 6] displayed an IC50 of 100 to 1000 nM.

The compound `Cc1cc(Nc2nc(N[C@@H]3C[C@H](CO)[C@@H](O)[C@H]3O)c3sccc3n2)sn1` [Compound 7] registered an IC50 of no more than 100 nM.

In turn, `Cc1cc(Nc2nc(N[C@H]3CC[C@@H](O)CC3)c3sccc3n2)sn1` [Compound 8] gave an IC50 of no more than 100 nM.

As to `Cc1cc(Nc2nc(NC3CCC(CO)CC3)c3sccc3n2)sn1` (centres unmarked) [Compound 10], the IC50 is no more than 100 nM.

As for `Cc1cc(Nc2nc(NC3CCC(O)C(C)C3)c3sccc3n2)sn1` (centres unmarked) [Compound 11], the IC50 was in the range of 100 to 1000 nM.

For `CCC1(O)CCC(Nc2nc(Nc3cc(C)ns3)nc3ccsc23)CC1` (centres unmarked) [Compound 12], the IC50 was in the range of 100 to 1000 nM.

Consider `Cc1cc(Nc2nc(NC3CCC(C(N)=O)CC3)c3sccc3n2)sn1` (centres unmarked) [Compound 13], for which the IC50 was in the range of 100 to 1000 nM.

In turn, `Cc1cc(Nc2nc(N[C@@H]3CC[C@H](O)[C@@H](O)C3)c3sccc3n2)sn1` [Compound 14] gave an IC50 of no more than 100 nM.

As to `Cc1cc(Nc2nc(O[C@H]3CC[C@H](O)CC3)c3sccc3n2)sn1` [Compound 15], the IC50 lay within 100 to 1000 nM.

With `CO[C@H]1CC[C@H](Nc2nc(Nc3cc(C)ns3)nc3ccsc23)CC1` [Compound 16], the IC50 fell in the range of 100 to 1000 nM.

For the compound `Cc1cc(Nc2nc(N[C@H]3CC[C@H](O)CC3)c3sccc3n2)on1` [Compound 17], the concentration for half-maximal inhibition (IC50) was 100 to 1000 nM.

Turning to `Cn1cc(Nc2nc(N[C@H]3CC[C@H](O)CC3)c3sccc3n2)cn1` [Compound 18], the IC50 was no more than 100 nM.

Turning to `O[C@H]1CC[C@H](Nc2nc(Nc3cnoc3)nc3ccsc23)CC1` [Compound 19], the IC50 fell in the range of 100 to 1000 nM.

Take `COc1cc(Nc2nc(N[C@@H]3C[C@H](CO)[C@@H](O)[C@H]3O)c3sccc3n2)ccn1` [Compound 20]: the IC50 was no more than 100 nM.

As for `O[C@H]1CC[C@H](Nc2nc(Nc3ccncc3)nc3ccsc23)CC1` [Compound 21], the IC50 lay in the range of 1000 to 10000 nM.

The compound `Cc1cc(Nc2nc(N[C@H]3CC[C@](C)(O)CC3)c3sccc3n2)cc(C)n1` [Compound 22] displayed an IC50 of 100 to 1000 nM.

As to `COc1cc(Nc2nc(N[C@H]3CC[C@](C)(O)CC3)c3sccc3n2)ccn1` [Compound 23], the IC50 is 100 to 1000 nM.

`Cc1cc(Nc2nc(N(C)C3CCC(C)(O)CC3)c3sccc3n2)sn1` (centres unmarked) [Compound 24, 1-methyl-4-(methyl(2-((3-methylisothiazol-5-yl)amino)thieno[3,2-d]pyrimidin-4-yl)amino)cyclohexanol]: the IC50 lay within 1000 to 10000 nM.

In turn, `O[C@H]1CC[C@H](Nc2nc(Nc3cnn(-c4ccccc4)c3)nc3ccsc23)CC1` [Compound 25, trans-4-((2-((1-phenyl-1H-pyrazol-4-yl)amino)thieno[3,2-d]pyrimidin-4-yl)amino)cyclohexanol] had an IC50 of no more than 100 nM.

`OCCn1cc(Nc2nc(N[C@H]3CC[C@H](O)CC3)c3sccc3n2)cn1` [Compound 26] displayed an IC50 of no more than 100 nM.

`O[C@H]1CC[C@H](Nc2nc(Nc3cnn(C4CCCC4)c3)nc3ccsc23)CC1` [Compound 27] came in with an IC50 of 100 to 1000 nM.

On to `O[C@H]1CC[C@H](Nc2nc(Nc3cnn(C4CCCNC4)c3)nc3ccsc23)CC1` (some centres unmarked) [Compound 28], for which the IC50 was no more than 100 nM.

In the case of `Oc1ccccc1-n1cc(Nc2nc(N[C@H]3CC[C@H](O)CC3)c3sccc3n2)cn1` [Compound 29], the IC50 fell in the range of 100 to 1000 nM.

Regarding `Oc1cccc(-n2cc(Nc3nc(N[C@H]4CC[C@H](O)CC4)c4sccc4n3)cn2)c1` [Compound 30], the IC50 is 100 to 1000 nM.

In the case of `Oc1ccc(-n2cc(Nc3nc(N[C@H]4CC[C@H](O)CC4)c4sccc4n3)cn2)cc1` [Compound 31], the IC50 is 100 to 1000 nM.

`O[C@H]1CC[C@H](Nc2nc(Nc3cnn(-c4cccc(N5CCOCC5)c4)c3)nc3ccsc23)CC1` [Compound 34] returned an IC50 of 100 to 1000 nM.

Compound `O[C@H]1CC[C@H](Nc2nc(Nc3cnn(-c4ccc(N5CCOCC5)cc4)c3)nc3ccsc23)CC1` [Compound 35] had an IC50 of 100 to 1000 nM.

`O[C@H]1CC[C@H](Nc2nc(Nc3cnn(-c4ccccn4)c3)nc3ccsc23)CC1` [Compound 36] registered a half-maximal inhibitory concentration (IC50) of 100 to 1000 nM.

In turn, `O[C@H]1CC[C@H](Nc2nc(Nc3cnn(-c4cccnc4)c3)nc3ccsc23)CC1` [Compound 37] showed an IC50 of no more than 100 nM.

`O[C@H]1CC[C@H](Nc2nc(Nc3cnn(-c4ccncc4)c3)nc3ccsc23)CC1` [Compound 38] yielded an IC50 of no more than 100 nM.

As for `O[C@H]1CC[C@H](Nc2nc(Nc3cnn(-c4ccncn4)c3)nc3ccsc23)CC1` [Compound 39], the 50% inhibitory concentration (IC50) fell in the range of 100 to 1000 nM.

Consider `O[C@H]1CC[C@H](Nc2nc(Nc3cnn(-c4cncnc4)c3)nc3ccsc23)CC1` [Compound 40], for which the 50% inhibitory concentration (IC50) was 100 to 1000 nM.

`Cc1ncccc1-n1cc(Nc2nc(N[C@H]3CC[C@H](O)CC3)c3sccc3n2)cn1` [Compound 41] displayed a half-maximal inhibitory concentration (IC50) of 1000 to 10000 nM.

As for `Cc1cncc(-n2cc(Nc3nc(N[C@H]4CC[C@H](O)CC4)c4sccc4n3)cn2)c1` [Compound 42], the IC50 is 100 to 1000 nM.

`Cc1cc(-n2cc(Nc3nc(N[C@H]4CC[C@H](O)CC4)c4sccc4n3)cn2)ccn1` [Compound 43] came in with an IC50 of 100 to 1000 nM.

Compound `C[C@]1(O)CC[C@H](Nc2nc(Nc3cnn(C(=O)CC4CCNCC4)c3)nc3ccsc23)CC1` [Compound 44] came in with an IC50 of 100 to 1000 nM.

The compound `CN1CCN(C(=O)c2cc(Nc3nc(N[C@H]4CC[C@H](O)CC4)c4sccc4n3)sn2)CC1` [Compound 45, (5-((4-((trans-4-hydroxycyclohexyl)amino)thieno[3,2-d]pyrimidin-2-yl)amino)isothiazol-3-yl)(4-methylpiperazin-1-yl)methanone] had a half-maximal inhibitory concentration (IC50) of 100 to 1000 nM.

`COCCNC(=O)c1csc(Nc2nc(N[C@H]3CC[C@](C)(O)CC3)c3sccc3n2)c1` [Compound 46] registered an IC50 of 100 to 1000 nM.

Consider `C[C@]1(O)CC[C@H](Nc2nc(Nc3cc(C(=O)N[C@H]4CCNC4)cs3)nc3ccsc23)CC1` [Compound 47], for which the half-inhibitory concentration (IC50) was no more than 100 nM.

Consider `C[C@]1(O)CC[C@H](Nc2nc(Nc3cc(C(=O)N[C@@H]4CCNC4)cs3)nc3ccsc23)CC1` [Compound 48], for which the IC50 is no more than 100 nM.

With `C[C@]1(O)CC[C@H](Nc2nc(Nc3cc(C(=O)NC4CCNCC4)cs3)nc3ccsc23)CC1` [Compound 49], the IC50 was in the range of 100 to 1000 nM.

Compound `CN1CCN(C(=O)c2csc(Nc3nc(N[C@H]4CC[C@](C)(O)CC4)c4sccc4n3)c2)CC1` [Compound 50] had an IC50 of 100 to 1000 nM.

In the case of `C[C@]1(O)CC[C@H](Nc2nc(Nc3cc(C(=O)NC4CCNCC4)n[nH]3)nc3ccsc23)CC1` [Compound 51], the IC50 lay within 1000 to 10000 nM.

For the compound `C[C@]1(O)CC[C@H](Nc2nc(Nc3cc(C(=O)NCCCO)ns3)nc3ccsc23)CC1` [Compound 52], the IC50 was no more than 100 nM.

Compound `COCCNC(=O)c1cc(Nc2nc(N[C@H]3CC[C@](C)(O)CC3)c3sccc3n2)sn1` [Compound 53] had an IC50 of 100 to 1000 nM.

Compound `C[C@]1(O)CC[C@H](Nc2nc(Nc3cc(C(=O)NCC4CCNCC4)ns3)nc3ccsc23)CC1` [Compound 54] had an IC50 of no more than 100 nM.

`C[C@]1(O)CC[C@H](Nc2nc(Nc3cc(C(=O)N[C@@H]4CCNC4)ns3)nc3ccsc23)CC1` [Compound 55] registered an IC50 of no more than 100 nM.

Regarding `C[C@]1(O)CC[C@H](Nc2nc(Nc3cc(C(=O)N[C@@H]4CCCNC4)ns3)nc3ccsc23)CC1` [Compound 56], the IC50 is no more than 100 nM.

On to `C[C@]1(O)CC[C@H](Nc2nc(Nc3cc(C(=O)NC4CCOCC4)ns3)nc3ccsc23)CC1` [Compound 57], for which the concentration for half-maximal inhibition (IC50) is no more than 100 nM.

In turn, `C[C@]1(O)CC[C@H](Nc2nc(Nc3cc(C(=O)NC4CCNCC4)ns3)nc3ccsc23)CC1` [Compound 58] came in with an IC50 of no more than 100 nM.

On to `CN1CCC(NC(=O)c2cc(Nc3nc(N[C@H]4CC[C@](C)(O)CC4)c4sccc4n3)sn2)CC1` [Compound 59], for which the IC50 was no more than 100 nM.

Compound `CC(=O)N1CCC(NC(=O)c2cc(Nc3nc(N[C@H]4CC[C@](C)(O)CC4)c4sccc4n3)sn2)CC1` [Compound 60] showed a half-maximal inhibitory concentration (IC50) of 100 to 1000 nM.

Compound `C[C@]1(O)CC[C@H](Nc2nc(Nc3cc(C(=O)Nc4ccccc4)ns3)nc3ccsc23)CC1` [Compound 61] gave an IC50 of 1000 to 10000 nM.

`C[C@]1(O)CC[C@H](Nc2nc(Nc3cc(C(=O)Nc4cccnc4)ns3)nc3ccsc23)CC1` [Compound 62] yielded an IC50 of 100 to 1000 nM.

In turn, `C[C@]1(O)CC[C@H](Nc2nc(Nc3cc(C(=O)Nc4ccncc4)ns3)nc3ccsc23)CC1` [Compound 63] displayed an IC50 of 100 to 1000 nM.

In turn, `C[C@]1(O)CC[C@H](Nc2nc(Nc3ccc(C(=O)N[C@@H]4CCNC4)cc3)nc3ccsc23)CC1` [Compound 64] came in with an IC50 of 100 to 1000 nM.

`C[C@]1(O)CC[C@H](Nc2nc(Nc3cccc(C(=O)NC4CCNCC4)c3)nc3ccsc23)CC1` [Compound 65] gave an IC50 of 100 to 1000 nM.
